Measurements reported in patent publication US20110190269A1, “GAMMA SECRETASE MODULATORS” (priority 2010, published 2011).

test system: γ-secretase; experiment: Cellular γ-secretase assay (inhibition of Aβ42 secretion); format: cell-based; conditions: human neuroglioma H4 cells overexpressing human APP, 22 hrs incubation
Outline: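 H4 neuroglioma cells overexpressing human APP got a ten-point compound dilution (0.4% DMSO final) for 22 h at 37 °C. Secreted Aβ42 in the supernatant was measured by electrochemiluminescence sandwich immunoassay (capture biotinylated 6E10, detection ruthenylated BAP15). IC50 came from a nonlinear regression fit.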

| SMILES | EC50 [nM] |
| --- | --- |
| COc1cc(Nc2nc3nc(C(F)(F)F)cc(-c4ccco4)n3n2)ccc1-n1cnc(C)c1 [Example 24, (7-Furan-2-yl-5-trifluoromethyl-[1,2,4]triazolo[1,5-a]pyrimidin-2-yl)-[3-methoxy-4-(4-methyl-imidazol-1-yl)-phenyl]-amine] | 592 |
| COc1cc(Nc2nc3c(-c4ccc(F)cc4F)cc(C)cn3n2)ccc1-n1cnc(C)c1 [Example 74, 8-(2,4-Difluorophenyl)-N-(3-methoxy-4-(4-methyl-1H-imidazol-1-yl)phenyl)-6-methyl-[1,2,4]triazolo[1,5-a]pyridin-2-amine] | 35 |
| COc1cc(Nc2nc3c(-c4ccc(F)cc4)nccn3n2)ccc1-n1cnc(C)c1 [Example 11, [8-(4-Fluoro-phenyl)-[1,2,4]triazolo[1,5-a]pyrazin-2-yl]-[3-methoxy-4-(4-methyl-imidazol-1-yl)-phenyl]-amine] | 580 |
| COc1cc(Nc2nc3c(C)cnc(OCC(F)(F)F)n3n2)ccc1-n1cnc(C)c1 [Example 72, [3-Methoxy-4-(4-methyl-imidazol-1-yl)-phenyl]-[8-methyl-5-(2,2,2-trifluoro-ethoxy)-[1,2,4]triazolo[1,5-c]pyrimidin-2-yl]-amine] | 355 |
| COc1cc(Nc2nc3ncc(C#N)c(-c4cccc(C)c4)n3n2)ccc1-n1cnc(C)c1 [Example 40, 2-[3-Methoxy-4-(4-methyl-imidazol-1-yl)-phenylamino]-7-m-tolyl-[1,2,4]triazolo[1,5-a]pyrimidine-6-carbonitrile] | 417 |
| COC(=O)c1cc(-c2cccc(OC(F)F)c2)n2nc(Nc3ccc(-n4cnc(C)c4)c(OC)c3)nc2n1 [Example 19, 7-(3-Difluoromethoxy-phenyl)-2-[3-methoxy-4-(4-methyl-imidazol-1-yl)-phenylamino]-[1,2,4]triazolo[1,5-a]pyrimidine-5-carboxylic acid methyl ester acetate] | 953 |
| COc1cc(Nc2nc3ncc(C#N)c(-c4ccccc4)n3n2)ccc1-n1cnc(C)c1 [Example 37, 2-[3-Methoxy-4-(4-methyl-imidazol-1-yl)-phenylamino]-7-phenyl-[1,2,4]triazolo[1,5-a]pyrimidine-6-carbonitrile] | 260 |
| COc1cc(Nc2nc3c(OCc4ccccc4)cccn3n2)ccc1-n1cnc(C)c1 [Example 43, (8-Benzyloxy-[1,2,4]triazolo[1,5-a]pyridin-2-yl)-[3-methoxy-4-(4-methyl-imidazol-1-yl)-phenyl]-amine] | 680 |
| COc1cc(Nc2nc3nc(C)cc(-c4ccccc4)n3n2)ccc1-n1cnc(C)c1 [Example 18, [3-Methoxy-4-(4-methyl-imidazol-1-yl)-phenyl]-(5-methyl-7-phenyl-[1,2,4]triazolo[1,5-a]pyrimidin-2-yl)-amine acetate] | 129 |
| COc1cc(Nc2nc3n(n2)CCCC3c2ccc(F)cc2)ccc1-n1cnc(C)c1 (single isomer, unassigned) [Example 52] | 280 |
| COc1cc(Nc2nc3c(-c4ccc(F)c(C(F)(F)F)c4)cc(C)cn3n2)ccc1-n1cnc(C)c1 [Example 75, 8-(4-Fluoro-3-(trifluoromethyl)phenyl)-N-(3-methoxy-4-(4-methyl-1H-imidazol-1-yl)phenyl)-6-methyl-[1,2,4]triazolo[1,5-a]pyridin-2-amine] | 19 |
| COc1cccn2nc(Nc3ccc(-n4cnc(C)c4)c(C#N)c3)nc12 [Example 3, 5-(8-Methoxy-[1,2,4]triazolo[1,5-a]pyridin-2-ylamino)-2-(4-methyl-imidazol-1-yl)-benzonitrile] | 3350 |
| COc1cc(Nc2nc3c(C)cnc(N4CCCC4)n3n2)ccc1-n1cnc(C)c1 [Example 60, [3-Methoxy-4-(4-methyl-imidazol-1-yl)-phenyl]-(8-methyl-5-pyrrolidin-1-yl-[1,2,4]triazolo[1,5-c]pyrimidin-2-yl)-amine] | 672 |
| COc1cc(Nc2nc3c(-c4ccc(F)cc4Cl)cc(F)cn3n2)ccc1-n1cnc(C)c1 [Example 86, 8-(2-Chloro-4-fluorophenyl)-6-fluoro-N-(3-methoxy-4-(4-methyl-1H-imidazol-1-yl)phenyl)-[1,2,4]triazolo[1,5-a]pyridin-2-amine] | 143 |
| COc1cc(Nc2nc3cccc(C(F)(F)F)n3n2)ccc1-n1cnc(C)c1 [Example 17, [3-Methoxy-4-(4-methyl-imidazol-1-yl)-phenyl]-(5-trifluoromethyl-[1,2,4]triazolo[1,5-a]pyridin-2-yl)-amine] | 285 |
| COc1cc(Nc2nc3ccc(C)c(C)n3n2)ccc1-n1cnc(C)c1 [Example 50, (5,6-Dimethyl-[1,2,4]triazolo[1,5-a]pyridin-2-yl)-[3-methoxy-4-(4-methyl-imidazol-1-yl)-phenyl]-amine] | 400 |
| COc1cc(Nc2nc3nc(C(F)(F)F)cc(-c4ccc(F)c(Cl)c4)n3n2)ccc1-n1cnc(C)c1 [Example 79, 7-(3-Chloro-4-fluorophenyl)-N-(3-methoxy-4-(4-methyl-1H-imidazol-1-yl)phenyl)-5-(trifluoromethyl)-[1,2,4]triazolo[1,5-a]pyrimidin-2-amine acetate] | 73 |
| COc1ccc(-c2cc(C)cn3nc(Nc4ccc(-n5cnc(C)c5)c(OC)c4)nc23)c(OC)c1 [Example 84, 8-(2,4-Dimethoxyphenyl)-N-(3-methoxy-4-(4-methyl-1H-imidazol-1-yl)phenyl)-6-methyl-[1,2,4]triazolo[1,5-a]pyridin-2-amine] | 321 |
| COc1cc(Nc2nc3c(-c4ccc(F)cc4)cc(C)cn3n2)ccc1-n1cnc(C)c1 [Example 46, [8-(4-Fluoro-phenyl)-6-methyl-[1,2,4]triazolo[1,5-a]pyridin-2-yl]-[3-methoxy-4-(4-methyl-imidazol-1-yl)-phenyl]-amine] | 180 |
| COc1cc(Nc2nc3nccc(-c4ccc(F)cc4)n3n2)ccc1-n1cnc(C)c1 [Example 71, [7-(4-Fluoro-phenyl)-[1,2,4]triazolo[1,5-a]pyrimidin-2-yl]-[3-methoxy-4-(4-methyl-imidazol-1-yl)-phenyl]-amine] | 270 |
| CCN(CC)c1cccc2nc(Nc3ccc(-n4cnc(C)c4)c(OC)c3)nn12 [Example 34, N5,N5-Diethyl-N2-[3-methoxy-4-(4-methyl-imidazol-1-yl)-phenyl]-[1,2,4]triazolo[1,5-a]pyridine-2,5-diamine] | 640 |

Next, values leading:

| EC50 [nM] | SMILES |
| --- | --- |
| 375 | COc1cc(Nc2nc3c(N4CCC(F)(F)CC4)cccn3n2)ccc1-n1cnc(C)c1 [Example 141, 8-(4,4-difluoropiperidin-1-yl)-N-(3-methoxy-4-(4-methyl-1H-imidazol-1-yl)phenyl)-[1,2,4]triazolo[1,5-a]pyridin-2-amine] |
| 31 | COc1cc(Nc2nc3c(-c4ccc(F)cc4)ccc(C(C)(C)O)n3n2)ccc1-n1cnc(C)c1 [Example 119, 2-{8-(4-Fluoro-phenyl)-2-[3-methoxy-4-(4-methyl-imidazol-1-yl)-phenylamino]-[1,2,4]triazolo[1,5-a]pyridin-5-yl}-propan-2-ol] |
| 356 | CCOC(=O)N1CC=C(c2cc(C)cn3nc(Nc4ccc(-n5cnc(C)c5)c(OC)c4)nc23)CC1 [Example 107, Ethyl 4-(2-(3-methoxy-4-(4-methyl-1H-imidazol-1-yl)phenylamino)-6-methyl-[1,2,4]triazolo[1,5-a]pyridin-8-yl)-5,6-dihydropyridine-1(2H)-carboxylate] |
| 117 | COc1cc(Nc2nc3c(-c4ccc(Cl)cc4)ccc(C(C)(C)O)n3n2)ccc1-n1cnc(C)c1 [Example 116, 2-{8-(4-Chloro-phenyl)-2-[3-methoxy-4-(4-methyl-imidazol-1-yl)-phenylamino]-[1,2,4]triazolo[1,5-a]pyridin-5-yl}-propan-2-ol] |
| 290 | COc1cc(Nc2nc3c(-c4ccc5c(c4)OCCN5C)cc(C)cn3n2)ccc1-n1cnc(C)c1 [Example 89, N-(3-Methoxy-4-(4-methyl-1H-imidazol-1-yl)phenyl)-6-methyl-8-(4-methyl-3,4-dihydro-2H-benzo[b][1,4]oxazin-7-yl)-[1,2,4]triazolo[1,5-a]pyridin-2-amine] |
| 69 | COc1cc(Nc2nc3c(-c4ccc(F)c(F)c4)cc(C4CC4)cn3n2)ccc1-n1cnc(C)c1 [Example 146, [6-Cyclopropyl-8-(3,4-difluoro-phenyl)-[1,2,4]triazolo[1,5-a]pyridin-2-yl]-[3-methoxy-4-(4-methyl-imidazol-1-yl)-phenyl]-amine] |
| 390 | COc1cc(Nc2nc3c(-c4cccc(CNS(C)(=O)=O)c4)cc(C)cn3n2)ccc1-n1cnc(C)c1 [Example 98, N-(3-(2-(3-Methoxy-4-(4-methyl-1H-imidazol-1-yl)phenylamino)-6-methyl-[1,2,4]triazolo[1,5-a]pyridin-8-yl)benzyl)methanesulfonamide] |
| 141 | COc1cc(Nc2nc3c(-c4ccc(F)c(F)c4)ccc(C(F)(F)F)n3n2)ccc1-n1cnc(C)c1 [Example 135, 8-(3,4-difluorophenyl)-N-(3-methoxy-4-(4-methyl-1H-imidazol-1-yl)phenyl)-5-(trifluoromethyl)-[1,2,4]triazolo[1,5-a]pyridin-2-amine] |
| 39 | CCOC(=O)c1cc(-c2ccc(F)c(Cl)c2)n2nc(Nc3ccc(-n4cnc(C)c4)c(OC)c3)nc2n1 [Example 94, Ethyl 7-(3-chloro-4-fluorophenyl)-2-(3-methoxy-4-(4-methyl-1H-imidazol-1-yl)phenylamino)-[1,2,4]triazolo[1,5-a]pyrimidine-5-carboxylate] |
| 84 | COc1cc(Nc2nc3c(-c4cccc(CNC(=O)OC(C)(C)C)c4)cc(C)cn3n2)ccc1-n1cnc(C)c1 [Example 95, tert-Butyl 3-(2-(3-methoxy-4-(4-methyl-1H-imidazol-1-yl)phenylamino)-6-methyl-[1,2,4]triazolo[1,5-a]pyridin-8-yl)benzylcarbamate] |
| 357 | COc1cc(Nc2nc3n(n2)C(c2ccc(F)cc2)CN(C)C3)ccc1-n1cnc(C)c1 (centres unmarked) [Example 124, 5-(4-fluorophenyl)-N-(3-methoxy-4-(4-methyl-1H-imidazol-1-yl)phenyl)-7-methyl-5,6,7,8-tetrahydro-[1,2,4]triazolo[1,5-a]pyrazin-2-amine] |
